Measured values reported in PubChem BioAssay AID248 (DTP/NCI, 2004).
Several values for one entry are separate records, joined by “and”; a condition that tells them apart may be missing. Identical values can stand only once. Inconclusive results and toxic doses are left out. No stated cut-off is given here; in the data, active means T/C of 150% or more; inactive means T/C below 125%.

System: L1210 leukemia ip in BDF1 mice, survival T/C
Experiment: NCI In Vivo Anticancer Drug Screen. Data for tumor model L1210 Leukemia (intraperitoneal) in B6D2F1 (BDF1) mice
Settings: endpoint: mean survival time, higher = longer survival
Procedure, shortened: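 Survival endpoint. Drug-treated group vs vehicle group, expressed as T divided by C. Tumor passaged by transplantation.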

[1] = dose: 100.0 mg/kg/injection, schedule: Q04DX003 (ip), vehicle: saline with Tween-80
[2] = dose: 200.0 mg/kg/injection, schedule: Q04DX003 (ip), vehicle: saline with Tween-80
[3] = dose: 400.0 mg/kg/injection, schedule: Q04DX003 (ip), vehicle: saline with Tween-80
[4] = dose: 100.0 mg/kg/injection, schedule: Q01DX001 (ip), vehicle: Klucel (hydroxypropylcellulose) (HPC)
[5] = dose: 100.0 mg/kg/injection, schedule: Q01DX009 (ip), vehicle: Klucel (hydroxypropylcellulose) (HPC)
[6] = dose: 200.0 mg/kg/injection, schedule: Q01DX001 (ip), vehicle: Klucel (hydroxypropylcellulose) (HPC)
[7] = dose: 200.0 mg/kg/injection, schedule: Q01DX009 (ip), vehicle: Klucel (hydroxypropylcellulose) (HPC)
[8] = dose: 400.0 mg/kg/injection, schedule: Q01DX001 (ip), vehicle: Klucel (hydroxypropylcellulose) (HPC)
[9] = dose: 100.0 mg/kg/injection, schedule: Q04DX003 (ip), vehicle: Klucel (hydroxypropylcellulose) (HPC)
[10] = dose: 200.0 mg/kg/injection, schedule: Q04DX003 (ip), vehicle: Klucel (hydroxypropylcellulose) (HPC)
[11] = dose: 400.0 mg/kg/injection, schedule: Q04DX003 (ip), vehicle: Klucel (hydroxypropylcellulose) (HPC)
[12] = dose: 100.0 mg/kg/injection, schedule: Q01DX001 (ip), vehicle: saline
[13] = dose: 200.0 mg/kg/injection, schedule: Q01DX001 (ip), vehicle: saline
[14] = dose: 400.0 mg/kg/injection, schedule: Q01DX001 (ip), vehicle: saline
[15] = dose: 100.0 mg/kg/injection, schedule: Q01DX009 (ip), vehicle: saline with Tween-80
[16] = dose: 200.0 mg/kg/injection, schedule: Q01DX009 (ip), vehicle: saline with Tween-80
[17] = dose: 50.0 mg/kg/injection, schedule: Q01DX009 (ip), vehicle: Klucel (hydroxypropylcellulose) (HPC)
[18] = dose: 25.0 mg/kg/injection, schedule: Q01DX009 (ip), vehicle: Klucel (hydroxypropylcellulose) (HPC)

Measured: T/C

C(=C\SCc1ccccc1)/SCc1ccccc1
inactive: dose: 100.0 mg/kg/injection, schedule: Q04DX002 (ip), vehicle: Klucel (hydroxypropylcellulose) (HPC) 103 % of control | [1] 97 % of control | dose: 200.0 mg/kg/injection, schedule: Q04DX002 (ip), vehicle: Klucel (hydroxypropylcellulose) (HPC) 103 % of control | [2] 101 % of control | dose: 400.0 mg/kg/injection, schedule: Q04DX002 (ip), vehicle: Klucel (hydroxypropylcellulose) (HPC) 96 % of control | [3] 102 % of control

COc1cc2c(c(OC)c1OC)-c1ccc(=O)c(OC)cc1[C@@H](NC(=O)CCl)CC2
inactive: [4] 94 % of control | [5] 103 % of control | [6] 98 % of control | [7] 103 % of control | [8] 105 % of control

Cc1ccc(OCCOc2ccc([N+](=O)[O-])cc2)cc1
inactive: [9] 96 % of control | [10] 93 % of control | [11] 91 % of control

C=CCOC(=O)CCl
inactive: dose: 55.0 mg/kg/injection, schedule: Q01DX Z (ip), vehicle: methylcellulose (MC) 87 % of control | dose: 100.0 mg/kg/injection, schedule: Q01DX001 (ip), vehicle: saline with Tween-80 92 % of control | dose: 200.0 mg/kg/injection, schedule: Q01DX001 (ip), vehicle: saline with Tween-80 98 % of control

Clc1ccc(/C=C/c2ccc3ccccc3n2)cc1
inactive: dose: 75.0 mg/kg/injection, schedule: Q01DX Z (ip), vehicle: carboxymethylcellulose (CMC) 96 % of control | dose: 113.0 mg/kg/injection, schedule: Q01DX Z (ip), vehicle: carboxymethylcellulose (CMC) 90 % of control | dose: 170.0 mg/kg/injection, schedule: Q01DX Z (ip), vehicle: carboxymethylcellulose (CMC) 88 % of control | dose: 255.0 mg/kg/injection, schedule: Q01DX Z (ip), vehicle: carboxymethylcellulose (CMC) 88 % of control

O=C1c2ccccc2C(=O)N1C/C=C/CN1C(=O)c2ccccc2C1=O
inactive: [12] 95 % of control | dose: 100.0 mg/kg/injection, schedule: Q04DX003 (ip), vehicle: saline 101 % of control | [13] 98 % of control | dose: 200.0 mg/kg/injection, schedule: Q04DX003 (ip), vehicle: saline 104 % of control | [14] 91 % of control | dose: 400.0 mg/kg/injection, schedule: Q04DX003 (ip), vehicle: saline 102 % of control

Cc1ccc2nc(Nc3ccc(Cl)cc3)cc(C(O)C3CCCCN3)c2c1 (centres undefined)
inactive: [9] 96 % of control | [10] 92 % of control | [11] 97 % of control

O=C(Nc1ccc([N+](=O)[O-])cc1)N(c1ccccc1)c1cc(N2CCOCC2)ccn1
inactive: [12] 91 % of control | [13] 91 % of control | [14] 88 % of control

Cc1cc(C)n(/N=C/c2ccccc2)c(=O)c1C#N
inactive: dose: 100.0 mg/kg/injection, schedule: Q01DX001 (ip), vehicle: carboxymethylcellulose (CMC) 91 % of control | dose: 200.0 mg/kg/injection, schedule: Q01DX001 (ip), vehicle: carboxymethylcellulose (CMC) 91 % of control | dose: 400.0 mg/kg/injection, schedule: Q01DX001 (ip), vehicle: carboxymethylcellulose (CMC) 91 % of control

CCCCCCCCCCCCCCCCCCNC(=O)Nc1c(C)cc(C)cc1C
inactive: dose: 100.0 mg/kg/injection, schedule: Q01DX009 (ip), vehicle: gum acacia 94 % of control | dose: 100.0 mg/kg/injection, schedule: Q04DX003 (ip), vehicle: gum acacia 90 % of control | dose: 200.0 mg/kg/injection, schedule: Q01DX009 (ip), vehicle: gum acacia 87 % of control | dose: 200.0 mg/kg/injection, schedule: Q04DX003 (ip), vehicle: gum acacia 93 % of control | dose: 400.0 mg/kg/injection, schedule: Q01DX009 (ip), vehicle: gum acacia 94 % of control | dose: 400.0 mg/kg/injection, schedule: Q04DX003 (ip), vehicle: gum acacia 87 % of control

Cc1cc(OCCBr)ccc1[N+](=O)[O-]
inactive: [4] 92 % of control | [6] 95 % of control | [8] 95 % of control

O=C(/C(Br)=C/c1ccccc1)/C(Br)=C/c1ccccc1
inactive: dose: 100.0 mg/kg/injection, schedule: Q01DX001 (ip), vehicle: saline sonified 97 % of control | [15] 109 % of control | dose: 200.0 mg/kg/injection, schedule: Q01DX001 (ip), vehicle: saline sonified 98 % of control | [16] 93 % of control | dose: 400.0 mg/kg/injection, schedule: Q01DX001 (ip), vehicle: saline sonified 93 % of control | dose: 400.0 mg/kg/injection, schedule: Q01DX009 (ip), vehicle: saline with Tween-80 94 % of control

O=C(NC(CO)C(=O)OCc1ccccc1)OCc1ccccc1 (centres undefined)
inactive: [5] 104 % of control | [9] 104 % of control | [1] 98 % of control | [7] 102 % of control | [10] 101 % of control | [2] 95 % of control | dose: 400.0 mg/kg/injection, schedule: Q01DX009 (ip), vehicle: Klucel (hydroxypropylcellulose) (HPC) 102 % of control | [11] 90 % of control | [3] 90 % of control

COCCC(=O)COC
inactive: dose: 50.0 mg/kg/injection, schedule: Q01DX001 (ip), vehicle: saline 97 % of control | [12] 95 % of control | [13] 91 % of control | [14] 95 % of control

CN(C)N=C(c1ccccc1)c1ccccc1
inactive: [17] 86 % of control | [5] 97 % of control

CCc1ccc(NC(=O)c2c(Br)c(Br)c(Br)c(Br)c2C(=O)O)cc1
inactive: [18] 96 % of control | [17] 104 % of control | [5] 101 % of control and 107 % of control

O=C(Nc1ccccc1F)Oc1ccc([N+](=O)[O-])cc1
inactive: [18] 106 % of control | [17] 95 % of control | [5] 94 % of control and 112 % of control

O=C1c2ccccc2CCC12OC2c1ccccc1[N+](=O)[O-] (centres undefined)
inactive: dose: 100.0 mg/kg/injection, schedule: Q01DX009 (ip), vehicle: saline 88 % of control | dose: 100.0 mg/kg/injection, schedule: Q04DX003 (ip), vehicle: acetone 98 % of control | dose: 200.0 mg/kg/injection, schedule: Q01DX009 (ip), vehicle: saline 89 % of control | dose: 200.0 mg/kg/injection, schedule: Q04DX003 (ip), vehicle: acetone 93 % of control | dose: 400.0 mg/kg/injection, schedule: Q01DX009 (ip), vehicle: saline 98 % of control | dose: 400.0 mg/kg/injection, schedule: Q04DX003 (ip), vehicle: acetone 109 % of control

O=C(N/N=C\c1ccc(/C=N\NC(=O)c2ccc(O)cc2)cc1)c1ccc(O)cc1
inactive: dose: 50.0 mg/kg/injection, schedule: Q01DX009 (ip), vehicle: saline with Tween-80 112 % of control | [15] 94 % of control | [16] 105 % of control

CC(C)c1ccc(/C=N/NC(=O)C[n+]2ccccc2)cc1
inactive: dose: 12.5 mg/kg/injection, schedule: Q01DX009 (ip), vehicle: saline 100 % of control | dose: 25.0 mg/kg/injection, schedule: Q01DX009 (ip), vehicle: saline 105 % of control | dose: 50.0 mg/kg/injection, schedule: Q01DX009 (ip), vehicle: saline 94 % of control
